According to US20250304594A1, “METHYL (R)-2-(FLUOROMETHYL)-5-OXO-4-PHENYL-4,5,6,7-TETRAHYDRO-1H-CYCLOPENTA[B]PYRIDINE-3-CARBOXYLATE AND METHYL (R)-2-(FLUOROMETHYL)-5-OXO-4-PHENYL-1,4,5,7-TETRAHYDROFURO[3,4-B]PYRIDINE-3-CARBOXYLATE AS Cav1,2 ACTIVATORS” (Novartis AG, priority 2020, published 2025):

Molecular target: T1, human CaV1.2 (Homo sapiens, UniProt Q13936)
T1 construct: expressed in transfected cells; host or cells: Flp-In 293 T-Rex (HEK293), monoclonal CaV1.2-HEK293(AUX) clone 2-19B; doxycycline-induced auxiliary subunits
T1 sequence (Q13936 1-2138 isoform Q13936-23): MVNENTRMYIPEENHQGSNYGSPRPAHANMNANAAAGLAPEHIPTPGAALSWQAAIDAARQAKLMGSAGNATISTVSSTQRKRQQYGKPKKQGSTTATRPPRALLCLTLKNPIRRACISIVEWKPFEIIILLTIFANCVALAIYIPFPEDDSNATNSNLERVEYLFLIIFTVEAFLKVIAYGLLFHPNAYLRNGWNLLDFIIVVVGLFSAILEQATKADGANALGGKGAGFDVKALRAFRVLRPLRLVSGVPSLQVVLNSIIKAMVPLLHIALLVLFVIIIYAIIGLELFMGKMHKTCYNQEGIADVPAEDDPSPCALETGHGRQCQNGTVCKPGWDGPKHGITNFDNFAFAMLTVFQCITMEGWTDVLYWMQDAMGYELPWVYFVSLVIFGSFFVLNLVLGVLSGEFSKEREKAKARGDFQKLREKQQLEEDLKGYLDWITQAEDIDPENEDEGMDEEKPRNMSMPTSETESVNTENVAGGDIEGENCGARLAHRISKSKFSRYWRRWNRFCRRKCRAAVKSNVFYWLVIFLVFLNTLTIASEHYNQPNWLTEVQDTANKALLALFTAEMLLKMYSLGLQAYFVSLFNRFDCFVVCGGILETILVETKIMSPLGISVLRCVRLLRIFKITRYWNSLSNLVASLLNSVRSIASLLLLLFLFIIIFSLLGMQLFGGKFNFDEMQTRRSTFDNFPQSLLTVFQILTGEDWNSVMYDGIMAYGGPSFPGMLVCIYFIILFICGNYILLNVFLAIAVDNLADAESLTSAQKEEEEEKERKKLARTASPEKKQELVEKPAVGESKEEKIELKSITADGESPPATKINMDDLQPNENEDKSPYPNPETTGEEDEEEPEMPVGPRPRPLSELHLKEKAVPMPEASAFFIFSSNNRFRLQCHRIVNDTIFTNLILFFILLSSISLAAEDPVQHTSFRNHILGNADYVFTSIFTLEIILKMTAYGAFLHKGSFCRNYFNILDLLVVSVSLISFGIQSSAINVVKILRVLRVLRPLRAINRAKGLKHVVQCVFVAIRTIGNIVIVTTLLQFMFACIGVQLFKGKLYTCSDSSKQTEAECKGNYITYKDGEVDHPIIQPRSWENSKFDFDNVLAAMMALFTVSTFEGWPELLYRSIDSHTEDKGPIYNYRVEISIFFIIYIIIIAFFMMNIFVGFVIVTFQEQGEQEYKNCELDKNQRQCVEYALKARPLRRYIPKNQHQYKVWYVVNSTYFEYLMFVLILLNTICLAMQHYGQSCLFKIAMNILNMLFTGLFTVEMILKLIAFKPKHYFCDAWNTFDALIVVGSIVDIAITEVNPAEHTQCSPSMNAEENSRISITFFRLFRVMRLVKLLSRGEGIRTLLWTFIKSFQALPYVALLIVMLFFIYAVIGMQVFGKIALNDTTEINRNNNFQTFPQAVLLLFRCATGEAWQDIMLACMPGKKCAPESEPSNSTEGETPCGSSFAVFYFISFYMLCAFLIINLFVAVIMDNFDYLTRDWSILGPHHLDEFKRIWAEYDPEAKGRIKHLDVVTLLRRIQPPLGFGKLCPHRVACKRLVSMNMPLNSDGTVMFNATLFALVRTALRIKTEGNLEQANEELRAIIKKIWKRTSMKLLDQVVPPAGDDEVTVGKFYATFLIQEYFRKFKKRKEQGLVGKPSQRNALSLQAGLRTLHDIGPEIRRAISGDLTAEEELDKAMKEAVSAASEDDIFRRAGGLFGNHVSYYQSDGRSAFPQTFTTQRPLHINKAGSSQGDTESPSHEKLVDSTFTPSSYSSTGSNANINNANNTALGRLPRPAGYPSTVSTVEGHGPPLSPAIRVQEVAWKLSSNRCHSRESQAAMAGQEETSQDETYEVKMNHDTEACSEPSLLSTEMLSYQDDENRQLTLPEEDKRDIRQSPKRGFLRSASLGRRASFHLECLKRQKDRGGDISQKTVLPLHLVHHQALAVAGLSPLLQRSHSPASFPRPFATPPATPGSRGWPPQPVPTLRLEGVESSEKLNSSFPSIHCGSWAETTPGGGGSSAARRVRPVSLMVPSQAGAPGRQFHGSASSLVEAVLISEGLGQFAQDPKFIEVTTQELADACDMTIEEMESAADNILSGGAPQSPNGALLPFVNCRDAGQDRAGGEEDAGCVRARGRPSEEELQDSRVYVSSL
T1 sequence (Q9NY47 19-1001 partner limits assumed): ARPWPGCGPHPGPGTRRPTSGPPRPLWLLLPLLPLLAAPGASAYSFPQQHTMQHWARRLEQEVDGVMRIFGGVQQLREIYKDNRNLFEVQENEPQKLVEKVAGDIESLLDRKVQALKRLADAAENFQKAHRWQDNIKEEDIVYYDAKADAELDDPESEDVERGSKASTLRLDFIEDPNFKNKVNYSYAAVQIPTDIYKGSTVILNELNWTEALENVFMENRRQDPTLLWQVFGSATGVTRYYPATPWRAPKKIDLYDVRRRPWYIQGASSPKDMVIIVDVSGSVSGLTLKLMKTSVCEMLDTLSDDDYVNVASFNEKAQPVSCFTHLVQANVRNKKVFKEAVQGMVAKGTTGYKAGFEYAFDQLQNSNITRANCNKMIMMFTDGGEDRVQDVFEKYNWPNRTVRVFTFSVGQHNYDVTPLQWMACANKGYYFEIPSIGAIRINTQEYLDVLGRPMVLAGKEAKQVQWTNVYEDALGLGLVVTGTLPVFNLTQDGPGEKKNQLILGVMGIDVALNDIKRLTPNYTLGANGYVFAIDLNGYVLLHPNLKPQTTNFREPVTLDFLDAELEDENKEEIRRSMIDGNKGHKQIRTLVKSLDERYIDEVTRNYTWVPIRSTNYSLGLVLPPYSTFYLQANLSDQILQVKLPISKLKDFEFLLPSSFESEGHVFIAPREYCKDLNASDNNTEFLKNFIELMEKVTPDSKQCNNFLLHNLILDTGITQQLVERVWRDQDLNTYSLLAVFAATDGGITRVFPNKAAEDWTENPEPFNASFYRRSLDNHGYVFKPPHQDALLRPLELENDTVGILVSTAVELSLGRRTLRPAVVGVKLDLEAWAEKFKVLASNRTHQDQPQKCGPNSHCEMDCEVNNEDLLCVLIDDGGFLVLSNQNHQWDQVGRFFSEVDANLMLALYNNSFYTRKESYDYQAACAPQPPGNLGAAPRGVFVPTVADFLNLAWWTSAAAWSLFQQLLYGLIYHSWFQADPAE
T1 sequence (Q9NY47 1002-1150 partner limits assumed): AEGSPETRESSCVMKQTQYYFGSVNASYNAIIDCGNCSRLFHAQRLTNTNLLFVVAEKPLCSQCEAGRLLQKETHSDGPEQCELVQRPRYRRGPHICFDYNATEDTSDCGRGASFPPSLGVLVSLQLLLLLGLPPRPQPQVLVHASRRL
T1 sequence (Q08289 whole entry partner): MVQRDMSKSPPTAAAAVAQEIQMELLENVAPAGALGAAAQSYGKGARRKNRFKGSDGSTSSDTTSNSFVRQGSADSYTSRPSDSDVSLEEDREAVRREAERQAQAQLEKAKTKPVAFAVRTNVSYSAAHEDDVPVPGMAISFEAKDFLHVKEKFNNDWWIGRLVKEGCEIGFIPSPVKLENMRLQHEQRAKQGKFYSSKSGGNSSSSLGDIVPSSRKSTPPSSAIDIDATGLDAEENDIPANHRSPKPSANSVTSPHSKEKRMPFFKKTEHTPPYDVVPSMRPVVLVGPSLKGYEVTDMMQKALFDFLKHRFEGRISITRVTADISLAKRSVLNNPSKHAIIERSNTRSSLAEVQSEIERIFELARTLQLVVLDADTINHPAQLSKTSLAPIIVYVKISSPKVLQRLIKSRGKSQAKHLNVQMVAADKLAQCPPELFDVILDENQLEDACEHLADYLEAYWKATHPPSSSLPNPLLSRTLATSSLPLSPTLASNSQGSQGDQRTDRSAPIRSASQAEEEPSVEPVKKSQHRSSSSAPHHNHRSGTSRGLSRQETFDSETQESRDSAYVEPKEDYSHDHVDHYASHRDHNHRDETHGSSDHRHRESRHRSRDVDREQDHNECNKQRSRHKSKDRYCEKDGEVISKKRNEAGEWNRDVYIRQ
Experiment: Sophion QPatch dose-response assay, whole-cell voltage clamp of barium currents in CaV1.2-HEK293(AUX) cells
Type: cell-based
Conditions: Table 9, n = 1 unless * n = 2; for EC50: 6-point dose response, 10 determinations per concentration; for Qpatch Emax: maximal fold change of peak inward current
Text: The monoclonal CaV1.2-HEK293(AUX) cell line constitutively expresses human CaV1.2 alpha1C (α1C) subunit (CACNA1C) and has doxycycline-inducible expression of the alpha2delta (α2Δ2) auxiliary subunit (CACNA2D2) and beta2 (02) auxiliary subunit (CACNB2). To generate the cell line, expression vectors pcDNA5.0/FRT-TO-CACNA2D2-FCS-P2A-CACNB2 and pCMV6-entry-CACNA1C were established via gene synthesis and cloning. Here, pcDNA5.0/FRT-TO plasmid is from Invitrogen, pCMV6-entry is from Origene, FCS stands for Furin Cleavage Site, P2A is a peptide self-cleavage sequence derived from porcine teschovirus-1, and FRT is the Flippase recognition target site. Next, parental line Flp-In™ 293 T-Rex (Invitrogen) was transfected with pcDNA5.0/FRT-TO-CACNA2D2-FCS-P2A-CACNB2 and Flippase vector pOG44 (Invitrogen) to establish targeted integration of the CACNA2D2-FCS-P2A-CACNB2 expression cassette into the pre-engineered FRT site in Flp-In™ 293 T-Rex. This intermediate cell line was then transfected with pCMV6-entry-CACNA1C to establish stable CACNA1C expression. Clonal isolation was achieved under Neomycin selection.
Electrophysiological Characterization of CaV1.2 Activators Using CaV1.2-HEK293(AUX) Cell Line and QPatch
24 hours prior an electrophysiology experiment, doxycycline (1 μg/ml) was added to the growth medium (Table 6), and 25 μM of verapamil was co-applied to prevent calcium influx triggered cell death. Cell confluency should reach 70%-80% right before the experiment. To harvest cells (from a T175 cm^2 flask as an example), growth media were removed completely, and the cells were rinsed with 10 mL of D-PBS. D-PBS was aspirated, and 10 mL of Detachin (Genlantis) was added and the plate was placed in a 37° C. incubator for 10 minutes. Detached cells were placed into a 15 mL conical tube and spun at 1000 rpm for 2 minutes. Supernatant was removed, and cells were re-suspended in QPatch complete media (Table 7) to desired cell density of 1.5-3 million cells per QPatch run. Each experimental run uses 1.5 mL of cells.
The cells suspension was taken to the Sophion QPatch platform that uses whole-cell voltage clamp to measure barium currents conducted through CaV1.2 on single-hole QPlates. Extracellular and intracellular patch clamp solutions are described in Tables 7 and 8, respectively. A dose-response assay protocol was used to determine the maximal fold change of peak inward current (Emax) and potency (EC50) of each compound. The protocol had eight liquid periods. The first liquid period was to stabilize current amplitude, which was monitored using repetitive 200-ms voltage pulses stepping from −80 mV to 0 mV. The second liquid period was to determine baseline current amplitude in the presence of vehicle control, using a single 20-ms voltage pulse stepping from −80 mV to 0 mV. The third through eighth liquid periods were used to ascertain a 6-dose response to compound treatments, also using single 20-ms voltage pulses stepping from −80 mV to 0 mV. The EC50 was generated using the following equation Iconcentration=Ibase+(Ifull−Ibase)*c^n/(XC50^n+c^n), where c is the concentration and n is the Hill coefficient constant. Ifull is the maximal current achievable, and Ibase is 0. A channel biophysics assay protocol was used to determine channel gating properties including current-voltage relationship (IV curves), half-way channel activation voltage (V1/2), rate of channel inactivation (tau), and amplitude of tail current. Among these, V1/2 was derived from fitting equation G(V)=Gvmin+(Gvmax−Gvmin)/(1+exp(−(V−V½)/Vslope)), where G stands for conductance, Gvmin equals 0, Gvmax is the maximal conductance, and Vslope is a slope factor. G(V) was pre-calculated from equation G(V)=I(V)/(V−0.06), for each experimentally applied depolarization potential (V) and the corresponding current amplitude (I(V)), and 0.06 in the equation was the experimentally determined reversal potential in volts. The protocol had four liquid periods.

Structure (SMILES) | EC50 [nM] | Qpatch Emax
COC(=O)C1=C(CF)NC2=C(C(=O)OC2)[C@H]1c1cccc(F)c1[C@@H](C)F (single isomer, unassigned) [Example 8] | 20 | 2.0
COC(=O)C1=C(CF)NC2=C(C(=O)OC2)[C@H]1c1cccc(F)c1C(F)(F)F (single isomer, unassigned) [Example 17] | 120 | 1.2
COC(=O)C1=C(CF)NC2=C(C(=O)OC2)[C@H]1c1cccc(F)c1[C@H](F)CF (single isomer, unassigned) [Example 6] | 17 | 1.4*
COC(=O)C1=C(CF)NC2=C(C(=O)OC2)[C@H]1c1cccc(F)c1CC(F)F (single isomer, unassigned) [Example 11] | 70 | 2.0
COC(=O)C1=C(CF)NC2=C(C(=O)OC2)[C@H]1c1cc(F)cc(F)c1[C@H](C)F (single isomer, unassigned) [Example 5, methyl (R)-4-(3,5-difluoro-2-((R or S)-1-fluoroethyl)phenyl)-2-(fluoromethyl)-5-oxo-1,4,5,7-tetrahydrofuro[3,4-b]pyridine-3-carboxylate] | 20 | 1.9
COC(=O)C1=C(CF)NC2=C(C(=O)OC2)[C@H]1c1cc(F)cc(F)c1C(F)(F)F (single isomer, unassigned) [Example 10] | 40 | 1.8
COC(=O)C1=C(CF)NC2=C(C(=O)OC2)[C@H]1c1cc(F)cc(F)c1[C@H](F)CF (single isomer, unassigned) [Example 16, methyl (R)-4-(2-((R or S)-1,2-difluoroethyl)-3,5-difluorophenyl)-2-(fluoromethyl)-5-oxo-1,4,5,7-tetrahydrofuro[3,4-b]pyridine-3-carboxylate] | 10 | 1.5
COC(=O)C1=C(CF)NC2=C(C(=O)OC2)[C@H]1c1cc(F)cc(F)c1[C@H]1CC1(F)F (single isomer, unassigned) [Example 4, Methyl (R)-4-(2-((R or S)-2,2-difluorocyclopropyl)-3,5-difluorophenyl)-2-(fluoromethyl)-5-oxo-1,4,5,7-tetrahydrofuro[3,4-b]pyridine-3-carboxylate] | 20 | 1.9
COC(=O)C1=C(CF)NC2=C(C(=O)OC2)[C@H]1c1cc(F)ccc1C(F)(F)F (single isomer, unassigned) [Example 23] | 120 | 3.5
COC(=O)C1=C(CF)NC2=C(C(=O)OC2)[C@H]1c1cc(F)cc(F)c1[C@H]1CC1(F)F (single isomer, unassigned) [Example 3, Methyl (R)-4-(2-((R or S)-2,2-difluorocyclopropyl)-3,5-difluorophenyl)-2-(fluoromethyl)-5-oxo-1,4,5,7-tetrahydrofuro[3,4-b]pyridine-3-carboxylate] | 50 | 1.6
COC(=O)C1=C(CF)NC2=C(C(=O)OC2)[C@H]1c1cccc(F)c1C1CC1 (single isomer, unassigned) [Example 2] | 12 | 2.3
COC(=O)C1=C(CF)NC2=C(C(=O)OC2)[C@H]1c1cccc(F)c1[C@H]1CC1(F)F (single isomer, unassigned) [Example 1, methyl (R)-4-(2-((R or S)-2,2-difluorocyclopropyl)-3-fluorophenyl)-2-(fluoromethyl)-5-oxo-1,4,5,7-tetrahydrofuro[3,4-b]pyridine-3-carboxylate] | 24 | 1.9
COC(=O)C1=C(CF)NC2=C(C(=O)CC2)[C@H]1c1cccc(F)c1C1CC1 (single isomer, unassigned) [Example 28] | 60 | 1.9
COC(=O)C1=C(CF)NC2=C(C(=O)OC2)[C@H]1c1cc(F)cc(F)c1C1CC1 (single isomer, unassigned) [Example 13] | 20 | 1.6*
COC(=O)C1=C(CF)NC2=C(C(=O)OC2)[C@H]1c1ccccc1OC(F)F (single isomer, unassigned) [Example 9] | 100 | 1.5
COC(=O)C1=C(CF)NC2=C(C(=O)CC2)[C@H]1c1cccc(F)c1[C@@H](F)CF (single isomer, unassigned) [Example 7, methyl (R)-4-(2-((R or S)-1,2-difluoroethyl)-3-fluorophenyl)-2-(fluoromethyl)-5-oxo-4,5,6,7-tetrahydro-1H-cyclopenta[b]pyridine-3-carboxylate] | 30 | 1.8
COC(=O)C1=C(CF)NC2=C(C(=O)OC2)[C@H]1c1cccc(F)c1C(F)F (single isomer, unassigned) [Example 15] | 290 | 1.3
COC(=O)C1=C(CF)NC2=C(C(=O)OC2)[C@H]1c1cc(F)cc(F)c1C(F)F (single isomer, unassigned) [Example 18] | 210 | 1.8
